Results: patent publication US7205304B2, “Sulfonyl-Derivatives as novel inhibitors of histone deacetylase” (Janssen Pharmaceutica N.V., priority 2002, dated 2007)
≈ marks a conversion by molar mass, not a printed value.

Experiments:
[1] = target: histone deacetylase (HeLa nuclear extracts); test: In vitro assay for inhibition of histone deacetylase; type: biochemical; conditions: [3H]acetylated histone H4 peptide substrate
[2] = tested on: A2780 ovarian carcinoma cells; test: Antiproliferative activity on A2780 cells (MTT); type: cell-based, human; conditions: Homo sapiens, A2780, 96 h, four days of incubation, read-out: Cellular activity pIC50 (converted)
Outline: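 A2780 ovarian carcinoma cells were seeded at 1500 cells/well and exposed to compound for four days, with DMSO ≤0.1%. Viability was measured by MTT (2 h, 37° C) and expressed as a percentage of untreated controls after blank subtraction. Initial single-point testing was at 10^−6 M, then full curves gave pIC50.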

[3] = Kinetic solubility in aqueous media (nephelometry); type: physicochemical; conditions: phosphate citrate buffer, pH 7.4, aqueous buffer, kinetic from dmso stock, phosphate citrate buffer pH 7.4, turbidity of three dilution steps; read-out: Solubility Score
Outline: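 DMSO stock (5 mM) diluted in three consecutive steps into phosphate citrate buffer pH 7.4, in triplicate; turbidity of each dilution read by nephelometry immediately after the last step. Compounds ranked into 3 classes: score 3 if first dilution clear, 2 if first unclear but second clear.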

| Structure (SMILES) | melting point [°C] | Enzyme activity pIC50 [1] | IC50 [2] [nM] | solubility [3] [µM] |
| --- | --- | --- | --- | --- |
| CN(C)Cc1sccc1-c1ccc(S(=O)(=O)N2CCN(c3ncc(C(=O)NO)cn3)CC2)cc1 [Co. No. 124] | 192 |  |  |  |
| CCOc1nc(N2CCN(S(=O)(=O)c3ccc4ccccc4c3)CC2)ncc1C(=O)NO [Compound 12] | 197 | <5 | 8200 |  |
| O=C(NO)c1ccc(N2CCN(S(=O)(=O)c3ccc4ccccc4c3)CC2)cc1C(F)(F)F [Compound 11] | 196 | <5 | 1010 |  |
| O=C(NO)c1cnc(N2CCN(S(=O)(=O)c3ccc(-c4cccc(CCN5CCCC5)c4)cc3)CC2)nc1 [Co. No. 127] | 243 |  |  |  |
| Cn1cnc(C(=O)Nc2ccc(N3CCN(S(=O)(=O)c4ccc5ccccc5c4)CC3)cc2)c1 [Compound 5] | 252 | <5 | > 10000 |  |
| CN(C)C(=O)c1ccc(N2CCN(S(=O)(=O)c3ccc4ccccc4c3)CC2)nn1 [Compound 113] | 200 | <5 | > 10000 |  |
| O=C(NO)c1cnc(N2CCN(S(=O)(=O)c3ccc4ccccc4c3)C(C(=O)NO)C2)nc1 (stereo not drawn) [Compound 122] | 166 | 7.06 | > 10000 |  |
| O=C(NO)c1cnc(N2CCN(S(=O)(=O)c3ccc(-c4ccsc4CN(CCO)CCO)cc3)CC2)nc1 [Compound 145] |  | 8.06 | 279 | < 75.8 |
| COc1cncc(-c2ccc(S(=O)(=O)N3CCN(c4ncc(C(=O)NO)cn4)CC3)cc2)c1 [Compound 138] |  | 7.545 | 249 | 75.8 to 454 (≈ 35.7 to 214 µg/mL) |
| COc1ccccc1-c1ccc(S(=O)(=O)N2CCN(c3ncc(C(=O)NO)cn3)CC2)cc1 [Compound 103] |  | 7.586 | 149 | 75.8 to 454 (≈ 35.6 to 213 µg/mL) |
| CN(C)CCc1cccc(-c2ccc(S(=O)(=O)N3CCN(c4ncc(C(=O)NO)cn4)CC3)cc2)c1 [Compound 172] |  | 8.566 | 64.4 | > 454 |
| CN(C)c1nc(N2CCN(S(=O)(=O)c3ccc4ccccc4c3)CC2)ncc1C(=O)NO [Compound 115] | 135 | <5 | 2020 |  |
| O=C(NO)c1ccc(N2CCN(S(=O)(=O)c3ccc(Cl)c(Cl)c3)CC2)cc1 [Compound 80] |  | 5.961 | 1230 | < 75.8 |
| O=C(NO)c1ccc(N2CCN(S(=O)(=O)c3cccc(-c4ccccc4)c3)CC2)cc1 [Compound 83] |  | 6.157 | 1300 | < 75.8 |
| O=C(NO)c1cnc(N2CCN(S(=O)(=O)c3ccc(-c4ccccn4)s3)CC2)nc1 [Compound 182] |  | 7.634 | 87.1 | < 75.8 |
| O=C(NO)c1ccc(N2CCN(S(=O)(=O)Cc3ccccc3)CC2)cc1 [Compound 73] |  | 6.212 | 3960 | < 75.8 |
| Cc1cc(C)cc(-c2ccc(S(=O)(=O)N3CCN(c4ncc(C(=O)NO)cn4)CC3)cc2)c1 [Compound 136] |  | 7.288 | 513 | < 75.8 |
| Cc1ccccc1-c1ccc(S(=O)(=O)N2CCN(c3ncc(C(=O)NO)cn3)CC2)cc1 [Compound 106] |  | 7.797 | 258 | 75.8 to 454 (≈ 34.4 to 206 µg/mL) |
| CN(C)CCN(C)Cc1ccccc1-c1ccc(S(=O)(=O)N2CCN(c3ncc(C(=O)NO)cn3)CC2)cc1 [Compound 159] |  | 8.61 | 95.9 | > 454 |

| Structure (SMILES) | melting point [°C] | Enzyme activity pIC50 [1] | IC50 [2] [nM] | solubility [3] [µM] |
| --- | --- | --- | --- | --- |
| COc1ccc(-c2ccc(S(=O)(=O)N3CCN(c4ncc(C(=O)NO)cn4)CC3)cc2)c(OC)c1 [Compound 99] |  | 7.316 | 242 | > 454 |
| O=C(NO)c1cnc(N2CCN(S(=O)(=O)c3ccc(-c4ccc(Cl)cc4)cc3)CC2)nc1 [Compound 184] |  | 7.22 | 62.8 | < 75.8 |
| CN1CCN(CCc2cccc(-c3ccc(S(=O)(=O)N4CCN(c5ncc(C(=O)NO)cn5)CC4)cc3)c2)CC1 [Compound 174] |  | 8.212 | 80.4 | > 454 |
| O=C(NO)c1cnc(N2CCN(S(=O)(=O)c3ccc(-c4ccccc4OCCN4CCCC4)cc3)CC2)nc1 [Compound 125] |  | 8.659 | 93.1 | 75.8 to 454 (≈ 41.9 to 251 µg/mL) |
| O=C(NO)c1ccc(NC(=O)N2CCN(S(=O)(=O)c3ccc4ccccc4c3)CC2)cc1 [Compound 8] |  | 7.587 | 2280 | > 454 |
| CN1CCN(Cc2sccc2-c2ccc(S(=O)(=O)N3CCN(c4ncc(C(=O)NO)cn4)CC3)cc2)CC1 [Compound 144] |  | 8.428 | 81.5 | > 454 |
| CC(C)N(C)CCc1cccc(-c2ccc(S(=O)(=O)N3CCN(c4ncc(C(=O)NO)cn4)CC3)cc2)c1 [Compound 173] |  | 8.423 | 70.5 | > 454 |
| CC(C)N(C)Cc1cccc(-c2ccc(S(=O)(=O)N3CCN(c4ncc(C(=O)NO)cn4)CC3)cc2)c1 [Compound 170] |  | 8.227 | 65.3 | > 454 |
| O=C(NO)c1cnc(N2CCN(S(=O)(=O)c3ccc(-c4ccccc4OCCN4CCCC4)cc3)CC2)nc1 (hydrate or solvate) [Co. No. 125] | 146.9 |  |  |  |
| CN(c1ccccc1)c1ccc2cc(S(=O)(=O)N3CCN(c4ncc(C(=O)NO)cn4)CC3)ccc2c1 [Compound 186] |  | 6.539 | 558 | 75.8 to 454 (≈ 39.3 to 236 µg/mL) |
| O=C(NO)c1cnc(N2CCN(S(=O)(=O)c3ccc(-c4ccc[nH]4)cc3)CC2)nc1 [Compound 137] |  | 7.169 | 1120 | 75.8 to 454 (≈ 32.5 to 195 µg/mL) |
| O=C(NO)c1ccc(N2CCN(S(=O)(=O)CCc3cccc4ccccc34)CC2)cc1 [Compound 62] |  | 5.409 | 384 | < 75.8 |
| O=C(NO)c1ccc(N2CCN(S(=O)(=O)c3ccc(Oc4ccccc4)cc3)CC2)cc1 [Compound 82] |  | 5.821 | 1080 | > 454 |
| O=C(NO)c1cnc(N2CCN(S(=O)(=O)N3CCOCC3)CC2)nc1 [Compound 14] |  | 6.621 | 5790 | > 454 |
| O=C(NO)c1cnc(N2CCN(S(=O)(=O)c3ccc(-c4cccc(CCN5CCCC5)c4)cc3)CC2)nc1 [Compound 127] |  | 8.482 | 68.9 | > 454 |
| O=C(NO)c1cnc(N2CCN(S(=O)(=O)c3ccc(-c4cccc(CN5CCOCC5)c4)cc3)CC2)nc1 [Compound 167] |  | 7.579 | 108 | > 454 |
| O=C(NO)c1cnc(N2CCN(S(=O)(=O)c3ccc(-c4ccc(F)cc4)cc3)CC2)nc1 [Compound 178] |  | 7.99 | 75.5 | < 75.8 |
| O=C(NO)c1ccc(N2CCN(S(=O)(=O)c3cccs3)CC2)cc1 [Compound 70] |  | 5.914 | 4060 | > 454 |
| Cn1nc(-c2ccc(S(=O)(=O)N3CCN(c4ncc(C(=O)NO)cn4)CC3)s2)cc1C(F)(F)F [Compound 93] |  | 7.464 | 455 | > 454 |
